Source: patent USRE37556E1, “Superoxide radical inhibitor” (Otsuka Pharmaceutical Co., Ltd., priority 1990, dated 2002)

Row | melting point | SMILES
1 | 198 to 200 °C | COc1ccc(-c2nc(-c3cc(N)cc(N)c3)cs2)cc1OC.Cl.Cl
2 | 163 to 168 °C | CCOc1ccc(-c2nc(-c3ccc(O)c(CC)c3)c(CN(C)C)s2)cc1OCC.Cl.Cl
3 | 101.3 to 103 °C | CCOc1ccc(-c2nc(-c3ccc(O[Si](C)(C)C(C)(C)C)c(CO)c3)cs2)cc1OCC
4 | 146 to 148 °C | COc1ccc(-c2nc(-c3ccc(O)c(O)c3)cs2)cc1OC.Cl [Example 1, 2-(3,4-dimethoxyphenyl)-4-(3,4-dihydroxyphenyl) thiazole hydrochloride]
5 | 191 to 192 °C | COc1ccc(-c2nc(-c3ccc4c(c3)CCC(=O)N4)co2)cc1OC [Example 137, 2-(3,4-dimethoxyphenyl)-4-(3,4-dihydrocarbostyril-6-yl) oxazole]
6 | 140 to 141 °C | [O-][n+]1cccc(-c2nc(-c3ccccc3)cs2)c1 [Example 139, 3-(4-phenylthiazol-2-yl) pyridine-N-oxide]
7 | 206 to 207 °C (dec.) | O=c1[nH]cccc1-c1nc(-c2ccccc2)cs1 [Example 140, 2-(2-oxopyridin-3-yl)4-phenylthiazole]
8 | 143.5 to 144 °C | COc1ccc(-c2nc(-c3ccc4c(c3)N(C)C(=O)CS4)cs2)cc1OC [Example 143, 2-(3,4-dimethoxyphenyl)-4-(4-methyl-2H-1,4-benzothiazin-3(4H)-one-6-yl)thiazole]
9 | 152.5 to 153.5 °C | COc1ccc(-c2nc(-c3ccc4c(c3)CCCN4C(=O)c3ccccc3)cs2)cc1OC [Example 144, 2-(3,4-dimethoxyphenyl)-4-(1-benzoyl-1,2,3,4-tetrahydroquinolin-6-yl)thiazole]
10 | 271 to 272 °C | COc1ccc(-c2nc(-c3ccc4oc(=O)[nH]c4c3)cs2)cc1OC [Example 145, 2-(3,4-dimethoxyphenyl)-4-(benzoxazol-2-on-5-yl) thiazole]
11 | ≥ 300 °C | O=C1CCc2cc(-c3csc(-c4ccc(C(=O)O)cc4)n3)ccc2N1 [Example 147, 2-(4-carboxyphenyl)-4-(3,4-dihydrocarbostyril-6-yl)thiazole]
12 | ≥ 300 °C | NC(=O)c1ccc(-c2nc(-c3ccc4c(c3)CCC(=O)N4)cs2)cc1 [Example 148, 2-(4-carbamoylphenyl)-4-(3,4-dihydrocarbostyril-6-yl)thiazole]
13 | 264 to 265 °C | COc1cc(-c2nc(-c3ccc4c(c3)CCC(=O)N4)cs2)ccc1[S+](C)[O-] (centres unmarked) [Example 149, 2-(3-methoxy-4-methylsulfinylphenyl)-4-(3,4-dihydrocarbostyril-6-yl)thiazole]
14 | 284 to 286 °C | COc1cc(-c2nc(-c3ccc4c(c3)CCC(=O)N4)cs2)ccc1S(C)(=O)=O [Example 150, 2-(3-methoxy-4-methylsulfonylphenyl)-4-(3,4-dihydrocarbostyril-6-yl)thiazole]
15 | 188 to 189 °C | COc1ccc(C(O)c2nc(-c3ccc4[nH]c(=O)c(O)c(O)c4c3)cs2)cc1OC (centres unmarked) [Example 151, 2-[1-(3,4-dimethoxyphenyl)-1-hydroxymethyl]-4-(3,4-dihydroxycarbostyril-6-yl)thiazole]
16 | 249 to 251 °C | COc1ccc(C(=O)c2nc(-c3ccc4[nH]c(=O)c(O)c(O)c4c3)cs2)cc1OC [Example 152, 2-(3,4-dimethoxybenzoyl)-4-(3,4-dihydroxycarbostyril-6-yl) thiazole]
17 | 138 to 140 °C | CCOc1ccc(-c2nc(-c3ccc(O[C@@H]4O[C@H](CO)[C@@H](O)[C@H](O)[C@H]4O)cc3)cs2)cc1OCC [Example 237, 4-[4-(β-D-glucopyranosyloxy)-phenyl]-2-(3,4-diethoxyphenyl)thiazole]
18 | 248 to 249 °C | COc1ccc(-c2nc(-c3ccc(OS(=O)(=O)O)cc3)cs2)cc1OC [Example 238, 4-(4-hydroxysulfonyloxyphenyl)-2-(3,4-dimethoxyphenyl)thiazole]
19 | 119 to 120 °C | CCOc1ccc(-c2nc(-c3ccc(N4CCOCC4)c([N+](=O)[O-])c3)cs2)cc1OCC [Example 242, 4-(4-morpholino-3-nitrophenyl)-2-(-3,4-diethoxyphenyl) thiazole]

Row | melting point | SMILES
20 | 128 to 129 °C | CCOc1ccc(C(=O)c2csc(-c3ccc(OCC)c(OCC)c3)n2)cc1OCC [Example 246, 2-(3,4-diethoxyphenyl)-4-(3,4-diethoxybenzoyl)thiazole]
21 | 94 to 95 °C | CCOc1ccc(-c2nc(C=Cc3ccccc3)cs2)cc1OCC [Example 247, 2-(3,4-diethoxyphenyl)-4-styrylthiazole]
22 | 118 to 119 °C | C=CCc1cc(-c2csc(-c3ccc(OCC)c(OCC)c3)n2)cc(C(=O)OC)c1O [Example 353, 2-(3,4-diethoxyphenyl)-4-(3-methoxycarbonyl-4-hydroxy-5-allylphenyl)thiazole]
23 | 108 to 109 °C | CCOc1ccc(-c2nc(-c3ccc(SC(=O)N(C)C)c(C(=O)OC)c3)cs2)cc1OCC [Example 354, 2-(3,4-diethoxyphenyl)-4-(4-dimethylaminocarbonylthio-3-methoxycarbonylphenyl)thiazole]
24 | 283 to 285 °C | CCOc1ccc(-c2nc(-c3ccc(S)cc3C(=O)O)cs2)cc1OCC [Example 355, 2-(3,4-diethoxyphenyl)-4-(4-mercapto-2-carboxyphenyl)-thiazole]
25 | 113 to 114 °C | CCOc1ccc(-c2nc(-c3cc(CCO)c(O)c(C(=O)OC)c3)cs2)cc1OCC [Example 358, 2-(3,4-diethoxyphenyl)-4-[3-methoxycarbonyl-4-hydroxy-5-(2-hydroxyethyl)phenyl]-thiazole]
26 | 228 to 229 °C | CCOc1ccc(-c2nc(-c3ccc(N)c(C(=O)O)c3)cs2)cc1OCC [Example 359, 2-(3,4-diethoxyphenyl)-4-(3-carboxy-4-aminophenyl)thiazole]
27 | 233 to 234 °C | CCOc1ccc(-c2nc(-c3cc(C(=O)O)c(O)cc3O)cs2)cc1OCC [Example 360, 2-(3,4-diethoxyphenyl)-4-(3-carboxy-4,6-dihydroxyphenyl)thiazole]
28 | 192 to 192.8 °C | CCOc1ccc(-c2nc(-c3cccc(C(=O)O)c3)cs2)cc1OCC [Example 362, 2-(3,4-diethoxyphenyl)-4-(3-carboxyphenyl)thiazole]
29 | 179 to 180 °C | CCCc1cc(-c2csc(-c3ccc(OCC)c(OCC)c3)n2)cc(C(=O)O)c1O [Example 363, 2-(3,4-diethoxyphenyl)-4-(3-carboxy-4-hydroxy-5-propylphenyl)thiazole]
30 | 178 to 179 °C | CCOc1ccc(-c2nc(-c3ccc(OC(C)=O)c(C(=O)O)c3)cs2)cc1OCC [Example 364, 2-(3,4-diethoxyphenyl)-4-(3-carboxy-4-acetyloxyphenyl)thiazole]
31 | 109 to 113 °C | CCOc1ccc(-c2nc(-c3cccc(CO)n3)cs2)cc1OCC [Example 454, 2-(3,4-diethoxyphenyl)-4-(2-hydroxymethyl-6-pyridyl)thiazole]
32 | 112 to 113 °C | CCOc1ccc(-c2nc(-c3ccc(OS(=O)(=O)C(F)(F)F)c(C(=O)OC)c3)cs2)cc1OCC [Example 457, 2-(3,4-diethoxyphenyl)-4-(3-methoxycarbonyl-4-trifluoromethanesulfonyloxyphenyl) thiazole]
33 | 123 to 124 °C | CCOc1ccc(-c2nc(Cn3cccc3C(C)=O)cs2)cc1OCC [Example 459, 2-(3,4-diethoxyphenyl)-4-(2-acetyl-1-pyrrolyl)methylthiazole]
34 | 67 to 68 °C | CCCCCCCCCOC(=O)c1cc(-c2csc(-c3ccc(OCC)c(OCC)c3)n2)ccc1O [Example 461, 2-(3,4-diethoxyphenyl)-4-(3-nonyloxycarbonyl-4-hydroxyphenyl)thiazole]
35 | 106 to 107 °C | CCOc1ccc(-c2nc(-c3cc4c(c(C(=O)O)c3)OC(C)(C)C4)cs2)cc1OCC [Example 465, 2-(3,4-diethoxyphenyl)-4-(2,2-dimethyl-7-carboxy-2,3-dihydrobenzofuran-5-yl)thiazole]
36 | 94 to 96 °C | CCOC(=O)C=Cc1cc(-c2csc(-c3ccc(OCC)c(OCC)c3)n2)cc(C(=O)OCOC)c1OCOC [Example 512, 2-(3,4-diethoxyphenyl)-4-[3-methoxymethoxycarbonyl-4-methoxymethoxy-5-(2-ethoxycarbonylvinyl)phenyl]thiazole]
37 | 260 to 261 °C | CCOc1ccc(-c2nc(-c3cc(C=CC(=O)O)c(O)c(C(=O)O)c3)cs2)cc1OCC [Example 514, 2-(3,4-diethoxyphenyl)-4-[3-carboxy-4-hydroxy-5-(2-carboxyvinyl)phenyl] thiazole]
38 | 236.2 to 237.2 °C | CCOc1ccc(-c2nc(-c3cc(C(=O)O)ccn3)cs2)cc1OCC [Example 516, 2(3,4-diethoxyphenyl)-4-(4-carboxy-2-pyridyl)thiazole]
